Assay results: US20260356851A1, “TRICYCLIC COMPOUNDS AND USES THEREOF” (HUTCHMED LIMITED, priority 2023, published 2026)

What was measured:
Type in all cases: cell-based
[1] = molecular target: T1, pERK1/2 (Thr202/Tyr204), NCI-1H441 (KRAS G12V) (Homo sapiens, UniProt P01116, G12V); experiment: Assay of intracellular pERK1/2 (Thr202/Tyr204) phosphorylation in NCI-H441 cells (KRAS G12V); conditions: pERK1/2, 2 days, read-out: NCI-H441 (KRAS G12V) IC50
T1 construct: pERK1/2 HTRF read-out
Procedure, shortened: (§1)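 HTRF detection of Thr202/Tyr204-phosphorylated ERK1/2 (665/615 nm ratio) in lysates from cells treated 2 days with serially 3-fold diluted compound.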

[2] = molecular target: T2, pERK1/2 (Thr202/Tyr204), PANC-1 (KRAS G121D) (Homo sapiens, UniProt P01116, G12D); experiment: Assay of intracellular pERK1/2 (Thr202/Tyr204) phosphorylation in PANC-1 cells (KRAS G12D); conditions: pERK1/2, 2 days, read-out: PANC-1 (KRAS G12D) IC50
T2 construct: pERK1/2 HTRF read-out
T2 sequence (P01116 1-188 isoform P01116-2 G12D): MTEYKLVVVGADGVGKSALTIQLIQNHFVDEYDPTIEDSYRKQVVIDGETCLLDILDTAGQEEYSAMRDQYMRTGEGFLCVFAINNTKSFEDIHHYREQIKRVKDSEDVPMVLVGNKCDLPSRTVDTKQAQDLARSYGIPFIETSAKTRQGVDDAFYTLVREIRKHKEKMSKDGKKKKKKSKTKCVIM
Procedure, shortened: as §1

[3] = molecular target: T3, pERK1/2 (Thr202/Tyr204), NCI-1H358 (KRAS G12C) (Homo sapiens, UniProt P01116, G12C); experiment: Assay of intracellular pERK1/2 (Thr202/Tyr204) phosphorylation in NCI-H358 cells (KRAS G12C); conditions: pERK1/2, 2 days, read-out: NCI-H358 (KRAS G12C) IC50
T3 construct: pERK1/2 HTRF read-out
T3 sequence (P01116 1-188 isoform P01116-2 G12C): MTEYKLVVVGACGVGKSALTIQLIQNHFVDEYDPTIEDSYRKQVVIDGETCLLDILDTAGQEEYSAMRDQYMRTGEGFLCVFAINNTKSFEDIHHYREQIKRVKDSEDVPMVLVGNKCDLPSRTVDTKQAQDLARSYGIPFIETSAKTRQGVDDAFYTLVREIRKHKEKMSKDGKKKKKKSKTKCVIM
Procedure, shortened: as §1

T1 sequence (P01116 1-188 isoform P01116-2 G12V): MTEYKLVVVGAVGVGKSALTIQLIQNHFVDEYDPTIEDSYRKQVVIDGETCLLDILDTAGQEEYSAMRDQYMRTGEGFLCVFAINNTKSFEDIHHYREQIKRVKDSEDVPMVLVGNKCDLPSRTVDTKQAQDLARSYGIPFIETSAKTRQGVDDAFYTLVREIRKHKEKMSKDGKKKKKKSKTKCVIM

SMILES | IC50 [1] | IC50 [2] | IC50 [3]
Cc1c(F)c(N)cc(-c2nc3c4c(nc(OC[C@@]56CCCN5C[C@H](F)C6)nc4c2F)N(C(C)c2cccnc2N)C[C@@H](C)O3)c1C(F)(F)F (single isomer, unassigned) [Compound 247, 3-((R or S)-1-((R)-5-(5-amino-4-fluoro-3-methyl-2-(trifluoromethyl)phenyl)-4-fluoro-2-(((2R,7aS)-2-fluorotetrahydro-1H-pyrrolizin-7a(5H)-yl)methoxy)-8-methyl-8,9-dihydro-10H-7-oxa-1,3,6,10-tetraazacyclohepta[de]naphthalen-10-yl)ethyl)pyridin-2-amine] | > 100 nM | > 100 nM | > 100 nM
C#Cc1c(Cl)cc(N)cc1-c1nc2c3c(nc(OC[C@@H]4CCCN4C)nc3c1F)N(C(C)c1cccnc1N)CCO2 (stereo partly drawn) [Compound 94] | 100 nM | > 100 nM | 46 nM
[2H]C1([2H])Oc2nc(-c3cc(N)c(F)c(C)c3C(F)(F)F)c(F)c3nc(OC[C@@H]4C[C@@H](F)CN4C)nc(c23)N(C(C)c2cccnc2N)C1([2H])[2H] (single isomer, unassigned) [Compound 202, 3-((R or S)-1-(5-(5-amino-4-fluoro-3-methyl-2-(trifluoromethyl)phenyl)-4-fluoro-2-(((2S,4R)-4-fluoro-1-methylpyrrolidin-2-yl)methoxy)-8,9-dihydro-10H-7-oxa-1,3,6,10-tetraazacyclohepta[de]naphthalen-10-yl-8,8,9,9-d4)ethyl)pyridin-2-amine] | 1 nM | 13 nM | 0.4 nM
Cc1c(F)c(N)cc(-c2nc3c4c(nc(OC[C@@H]5CCCN5C)nc4c2F)N(C(C)c2cccnc2N)CCO3)c1C(F)(F)F (single isomer, unassigned) [Compound 86, 3-((R or S)-1-(5-(5-amino-4-fluoro-3-methyl-2-(trifluoromethyl)phenyl)-4-fluoro-2-(((S)-1-methylpyrrolidin-2-yl)methoxy)-8,9-dihydro-10H-7-oxa-1,3,6,10-tetraazacyclohepta[de]naphthalen-10-yl)ethyl)pyridin-2-amine] | 43 nM | > 100 nM | 29 nM
CC(c1cccnc1N)N1CCOc2nc(-c3cc(N)c(F)c(Cl)c3C(F)(F)F)c(F)c3nc(OC[C@@]45CCCN4C/C(=C\F)C5)nc1c23 (stereo partly drawn) [Compound 229] | 0.5 nM | 0.5 nM | 0.1 nM
CC(c1cccnc1N)N1c2nc(OC[C@@]34CCCN3C[C@H](F)C4)nc3c(F)c(-c4ccc(F)c5sc(N)nc45)nc(c23)OC[C@@H]1C (stereo partly drawn) [Compound 320] | 4 nM | 28 nM | 0.9 nM
CC(c1cccnc1N)N1CCOc2nc(-c3c(C(F)(F)F)ccc4[nH]ncc34)c(F)c3nc(OC[C@@H]4CC(F)(F)CN4C)nc1c23 (stereo partly drawn) [Compound 40] | 31 nM | 934 nM | 18 nM
CC(c1cccnc1N)N1c2nc(OC[C@@]34CCCN3C[C@H](F)C4)nc3c(F)c(-c4cc(F)cc5c4C(F)(F)CC5)nc(c23)OC[C@@H]1C (stereo partly drawn) [Compound 371] | 11 nM | 57 nM | 3 nM
CC(c1cccnc1N)N1CCOc2nc(-c3cc(N)c(F)c(Cl)c3C(F)(F)F)c(F)c3nc(OC[C@@]45CCCN4C[C@H](F)C5)nc1c23 (stereo partly drawn) [Compound 168] | 0.4 nM | 2 nM | 0.2 nM
CC(c1cccnc1N)N1c2nc(OC[C@@]34CCCN3C[C@H](F)C4)nc3c(F)c(-c4cc(N)cc(Cl)c4C(F)(F)F)nc(c23)OC[C@@H]1C (single isomer, unassigned) [Compound 270, 3-((R or S)-1-((S)-5-(5-amino-3-chloro-2-(trifluoromethyl)phenyl)-4-fluoro-2-(((2R,7aS)-2-fluorotetrahydro-1H-pyrrolizin-7a(5H)-yl)methoxy)-9-methyl-8,9-dihydro-10H-7-oxa-1,3,6,10-tetraazacyclohepta[de]naphthalen-10-yl)ethyl)pyridin-2-amine] | 0.7 nM | 0.3 nM | 0.3 nM
CCN1CCC[C@H]1COc1nc2c3c(nc(-c4cc(N)cc(C)c4C(F)(F)F)c(F)c3n1)OCCN2C(C)c1cccnc1N (stereo partly drawn) [Compound 114] | 0.9 nM | 19 nM | 0.6 nM
Cc1cc2[nH]ncc2c(-c2nc3c4c(nc(OC[C@@]56CCCN5C[C@H](F)C6)nc4c2F)N([C@H](C)c2cc(F)cnc2N)[C@@H](C)CO3)c1C(F)(F)F [Compound 342] | 0.4 nM | 0.3 nM | 0.2 nM
[2H]C([2H])(Oc1nc2c3c(nc(-c4cc(O)cc(Cl)c4C4CC4)c(F)c3n1)OCCN2[C@@H](C)c1cccnc1N)[C@@H]1C[C@@H](F)CN1C([2H])([2H])[2H] (single isomer, unassigned) [Compound 143, 3-(10-((R or S)-1-(2-aminopyridin-3-yl)ethyl)-4-fluoro-2-(((2S,4)-4-fluoro-1-(methyl-d3)pyrrolidin-2-yl)methoxy-d2)-9,10-dihydro-8H-7-oxa-1,3,6,10-tetraazacyclohepta[de]naphthalen-5-yl)-5-chloro-4-cyclopropylphenol] | 2 nM | 21 nM | 0.5 nM
CC(c1cccnc1N)N1c2nc(OC[C@@]34CCCN3C[C@H](F)C4)nc3c(F)c(-c4cc(=O)[nH]c5ccccc45)nc(c23)OC[C@@H]1C (stereo partly drawn) [Compound 360] | > 100 nM | > 100 nM | > 100 nM
Cc1cc(N)cc(-c2nc3c4c(nc(OC[C@@]56CCCN5C[C@H](F)C6)nc4c2F)N(C(C)c2cccnn2)CCO3)c1C(F)(F)F (stereo partly drawn) [Compound 121] | 98 nM | > 100 nM | > 100 nM
CC(c1cccnc1N)N1CCOc2nc(-c3cc(N)cc(F)c3C(F)(F)F)c(F)c3nc(OC[C@@H]4C[C@@H](F)CN4C)nc1c23 (single isomer, unassigned) [Compound 92, 3-((R or S)-1-(5-(5-amino-3-fluoro-2-(trifluoromethyl)phenyl)-4-fluoro-2-(((2S,4R)-4-fluoro-1-methylpyrrolidin-2-yl)methoxy)-8,9-dihydro-10H-7-oxa-1,3,6,10-tetraazacyclohepta[de]naphthalen-10-yl)ethyl)pyridin-2-amine] | 2 nM | 58 nM | 1 nM
Cc1c(C(F)(F)F)c(-c2nc3c4c(nc(OC[C@@]56CCCN5C[C@H](F)C6)nc4c2F)N(C(C)c2cccnc2N)[C@@H](C)CO3)c2c(Cl)n[nH]c2c1F (stereo partly drawn) [Compound 381] | 0.4 nM | 0.2 nM | 0.2 nM
[2H]C([2H])(Oc1nc2c3c(nc(-c4cc(N)c(F)c(C)c4C(F)(F)F)c(F)c3n1)OCCN2C(C)c1cccnc1N)[C@@H]1CCC([2H])([2H])N1C([2H])([2H])[2H] (stereo partly drawn) [Compound 104] | 3 nM | 24 nM | 2 nM
CC(c1cccnc1N)N1c2nc(OC[C@@]34CCCN3C[C@H](F)C4)nc3c(F)c(-c4ccc(F)c5sc(N)c(C#N)c45)nc(c23)OC[C@@H]1C (stereo partly drawn) [Compound 328] | 0.8 nM | 0.8 nM | 0.5 nM
Cc1cc(Nc2nc3c4c(nc(OC[C@@]56CCCN5C[C@H](F)C6)nc4c2F)N(C(C)c2cccnc2N)CCO3)c(F)cc1C(F)(F)F (stereo partly drawn) [Compound 162] | > 100 nM | > 100 nM | > 100 nM
Cc1c(C(F)(F)F)c(-c2nc3c4c(nc(OCC5(CN(C)CCO)CC5)nc4c2F)N(C(C)c2cccnc2N)[C@@H](C)CO3)c2cn[nH]c2c1F (stereo partly drawn) [Compound 394, (*)2-(((1-((((9S)-10-(1-(2-aminopyridin-3-yl)ethyl)-4-fluoro-5-(7-fluoro-6-methyl-5-(trifluoromethyl)-1H-indazol-4-yl)-9-methyl-9,10-dihydro-8H-7-oxa-1,3,6,10-tetraazacyclohepta[de]naphthalen-2-yl)oxy)methyl)cyclopropyl)methyl)(methyl)amino)ethan-1-ol] | 2 nM | 36 nM | 1 nM
Cc1cc(N)cc(-c2nc3c4c(nc(OC[C@@H]5CCCN5C5COC5)nc4c2F)N(C(C)c2cccnc2N)CCO3)c1C(F)(F)F (single isomer, unassigned) [Compound 160, 3-((R or S)-1-(5-(5-amino-3-methyl-2-(trifluoromethyl)phenyl)-4-fluoro-2-(((S)-1-(oxetan-3-yl)pyrrolidin-2-yl)methoxy)-8,9-dihydro-10H-7-oxa-1,3,6,10-tetraazacyclohepta[de]naphthalen-10-yl)ethyl)pyridin-2-amine] | 2 nM | > 100 nM | 0.5 nM
CC(c1cccnc1N)N1CCOc2nc(-c3cc(O)cc(Cl)c3C3CC3)c(F)c3nc(OC[C@@H]4CCCN4C)nc1c23 (single isomer, unassigned) [Compound 32, 3-(10-((R or S)-1-(2-aminopyridin-3-yl)ethyl)-4-fluoro-2-(((S)-1-methylpyrrolidin-2-yl)methoxy)-9,10-dihydro-8H-7-oxa-1,3,6,10-tetraazacyclohepta[de]naphthalen-5-yl)-5-chloro-4-cyclopropylphenol] | 6 nM | 50 nM | 3 nM
Cc1cc(N)cc(-c2nc3c4c(nc(OC[C@@]56CCCN5C[C@H](F)C6)nc4c2F)N(C(C)c2cccnn2)CCO3)c1C(F)(F)F (single isomer, unassigned) [Compound 127, 3-(4-fluoro-2-(((2R,7aS)-2-fluorotetrahydro-1H-pyrrolizin-7a(5H)-yl)methoxy)-10-((R or S)-1-(pyridazin-3-yl)ethyl)-9,10-dihydro-8H-7-oxa-1,3,6,10-tetraazacyclohepta[de]naphthalen-5-yl)-5-methyl-4-(trifluoromethyl)aniline] | > 100 nM | > 100 nM | > 100 nM
